The record followed here is US20150342954A1, “2-BENZYL, 3-(PYRIMIDIN-2-YL) SUBSTITUTED PYRAZOLES USEFUL AS SGC STIMULATORS” (IRONWOOD PHARMACEUTICALS, INC., priority 2011, published 2015).

This assay addresses T1, soluble guanylate cyclase (sGC) (Homo sapiens, UniProt Q02108+Q02153).
T1 construct: endogenously expressing soluble guanylate cyclase (sGC); endogenous in cells; host or cells: HEK293
T1 sequence (Q02153 1-619): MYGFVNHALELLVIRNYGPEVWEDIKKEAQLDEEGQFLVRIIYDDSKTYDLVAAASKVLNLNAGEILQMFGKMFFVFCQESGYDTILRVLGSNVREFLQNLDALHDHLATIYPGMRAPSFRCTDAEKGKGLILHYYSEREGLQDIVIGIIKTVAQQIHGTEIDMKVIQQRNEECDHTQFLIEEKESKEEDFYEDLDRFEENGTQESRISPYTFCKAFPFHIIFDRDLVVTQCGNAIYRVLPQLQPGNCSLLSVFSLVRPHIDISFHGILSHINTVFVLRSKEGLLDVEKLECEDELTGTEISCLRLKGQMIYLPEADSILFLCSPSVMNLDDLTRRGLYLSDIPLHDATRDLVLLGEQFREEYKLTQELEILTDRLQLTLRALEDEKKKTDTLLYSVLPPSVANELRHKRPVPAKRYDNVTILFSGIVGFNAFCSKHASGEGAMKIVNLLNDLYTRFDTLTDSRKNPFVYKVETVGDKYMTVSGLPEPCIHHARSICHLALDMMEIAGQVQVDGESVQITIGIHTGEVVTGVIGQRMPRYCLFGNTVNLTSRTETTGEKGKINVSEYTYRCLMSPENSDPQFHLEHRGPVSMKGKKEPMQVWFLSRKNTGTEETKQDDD
T1 sequence (Q02108 1-690): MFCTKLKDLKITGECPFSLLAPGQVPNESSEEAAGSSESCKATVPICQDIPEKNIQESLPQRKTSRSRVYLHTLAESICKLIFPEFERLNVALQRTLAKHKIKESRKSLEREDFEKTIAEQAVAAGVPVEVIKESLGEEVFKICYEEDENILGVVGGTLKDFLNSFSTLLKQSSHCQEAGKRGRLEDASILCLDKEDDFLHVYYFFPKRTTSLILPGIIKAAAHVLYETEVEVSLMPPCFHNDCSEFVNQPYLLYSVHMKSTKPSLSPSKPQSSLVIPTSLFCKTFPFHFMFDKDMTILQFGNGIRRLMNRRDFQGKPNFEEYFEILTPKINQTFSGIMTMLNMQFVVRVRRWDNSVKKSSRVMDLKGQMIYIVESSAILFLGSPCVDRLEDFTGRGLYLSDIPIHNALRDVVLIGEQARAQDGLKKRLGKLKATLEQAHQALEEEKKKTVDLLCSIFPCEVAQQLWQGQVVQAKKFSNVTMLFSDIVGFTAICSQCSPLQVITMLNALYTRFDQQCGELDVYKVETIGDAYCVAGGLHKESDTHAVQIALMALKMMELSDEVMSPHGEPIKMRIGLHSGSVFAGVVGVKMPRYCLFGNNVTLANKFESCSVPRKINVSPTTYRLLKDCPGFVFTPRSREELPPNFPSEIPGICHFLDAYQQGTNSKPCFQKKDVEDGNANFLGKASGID
Briefly: sGC-HEK-cGMP assay (run with SNP incubation). In kind it is cell-based. To be noted: for Emax: 10 μM SNP, 100% = 30 μM BAY 41-2272 with 10 μM SNP, read-out: HEK assay Emax-unconstrained (Percent); for HEK MEC-10: concentration that would elicit 10% of the Emax in the presence of 10 μM SNP; for EC50: in the presence of 10 μM SNP. The procedure:
Biological Activity Measurement by the sGC-HEK-cGMP Assay
(Assay Run with SNP Incubation)
Human embryonic kidney cells (HEK293), endogenously expressing soluble guanylate cyclase (sGC), were used to evaluate the activity of test compounds. Compounds stimulating the sGC receptor should cause an increase in the intracellular concentration of cGMP. HEK 293 cells were seeded in Dulbecco's Modification of Eagle's Medium supplemented with fetal bovine serum (10% final) and L-glutamine (2 mM final) in a 2004 volume at a density of 1×10^5 cells/well in a poly-D-lysine coated 96 well flat bottom plate and grown overnight at 37° C. Medium was aspirated and cells were washed with 1× Hank's Buffered Saline Salt Solution (2004). Cells were then incubated for 15 minutes at 37° C. with 0.5 mM 3-isobutyl-1-methylxanthine (2004). Test article and sodium nitroprusside were then added to the assay mixture (24 each) and incubated at 37° C. for 10 minutes. After the 10 minute incubation, the assay mixture was aspirated and 0.1M HCl (2004) was added to the cells. The plate was incubated at 4° C. for 30 minutes in the 0.1M HCl to stop the reaction and lysed the cells. The plates were then centrifuged at 1,200 g for 5 minutes at room temperature. Supernatants were collected and transferred to a new flat bottom 96 well plate for analysis. Vehicle controls were carried out using DMSO (1%). A known sGC stimulator, BAY 41-2272, was used as the positive control. Samples were diluted with an equal volume of 1 M Ammonium Acetate (pH 7) to neutralize samples for better chromatography. A 2×cGMP standard curve was prepared in 0.1 M HCl and then diluted with an equal volume of 1 M Ammonium Acetate, with the following final concentrations in nM: 1024, 512, 256, 128, 64, 32, 16, 8, 4, 2, 1.cGMP concentrations were determined from each sample using the LC/MS conditions (Table 2 below) and calculated standard curve. EC50 values were calculated from concentration-response curves generated with GraphPad Prism Software.

Setting [1] is: Table 3A, top of concentration-response curve not fitted to 100%.
The mark [2] stands for this setting: Table 3D, read-out: HEK assay EC50.
Where [3] appears, read: top of concentration-response curve not fitted to 100%, Table 3D, read-out: HEK assay EC50-unconstrained.
Where [4] appears, read: Table 3B, top of concentration-response curve not fitted to 100%.
The mark [5] stands for this setting: Table 3E, read-out: HEK assay EC50.
Where [6] appears, read: top of concentration-response curve not fitted to 100%, Table 3E, read-out: HEK assay EC50-unconstrained.
[7] abbreviates: Table 3C, top of concentration-response curve not fitted to 100%.
Setting [8] is: Table 3F, read-out: HEK assay EC50.
Setting [9] is: top of concentration-response curve not fitted to 100%, Table 3F, read-out: HEK assay EC50-unconstrained.

As usually defined, the Emax is the size of the effect at its maximum, as opposed to the concentration needed. As a reminder, the EC50 is the midpoint of the concentration-response curve.

Like-named read-outs stand apart in the source and are kept apart here. A value given as a limit tells only on which side of the number the result lay.

As to `Fc1ccccc1Cn1nc(-c2ncc(F)c(Cl)n2)cc1-c1ccon1` [Compound 30, 3-(3-(4-chloro-5-fluoropyrimidin-2-yl)-1-(2-fluorobenzyl)-1H-pyrazol-5-yl)isoxazole], the Emax under setting [1] was in the range of 60 to 80%. Besides, the “HEK MEC-10” value (Table 3D) is on record as “D (1 to <10 μM)”. The EC50 reads like this: under setting [2], less than 20 µM; under setting [3], 1 to 5 µM.
The corresponding values for `N#CC1(C(=O)Nc2cnc(-c3cc(-c4ccon4)n(Cc4cccc(F)c4F)n3)nc2N)CC1` [Compound 36] are 40 to 60%, “D (1 to <10 μM)”, less than 20 µM and 0.01 to 0.5 µM.
In the case of `Nc1ccnc(-c2cc(-c3ccon3)n(Cc3cccc(F)c3F)n2)n1` [Compound 37], the Emax under setting [1] lay within 80 to 100%. Moreover, under “Table 3D”, the “HEK MEC-10” value is on record as “C (0.1 to <1 μM)”. Besides, the EC50 was in the range of 20 to 40 µM under setting [2] and 10 to 50 µM under setting [3].
Turning to `Oc1nc(-c2cc(-c3cocn3)n(Cc3ccccc3F)n2)ncc1F` [Compound 48], the Emax under setting [1] was in the range of 60 to 80%. For the same molecule, the “HEK MEC-10” value (Table 3D) was “C (0.1 to <1 μM)”. Further, the EC50 was less than 20 µM under setting [2] and 1 to 5 µM under setting [3].
On to `Fc1ccccc1Cn1nc(-c2ncc(Br)c(OCc3ccccc3)n2)cc1-c1ccon1` [Compound 50], for which, under setting [2], the EC50 lay within 1200 to 7000 µM.
For `Oc1nc(-c2cc(-c3ccon3)n(Cc3cccc(Cl)c3F)n2)ncc1Cl` [Compound 82], under setting [4], the Emax was 40 to 60%. Further, where the note is “Table 3E”, the “HEK MEC-10” value was “B (0.01 to <0.1 μM)”. Moreover, the EC50 by setting is: under setting [5], 40 to 60 µM; under setting [6], 0.01 to 0.5 µM.
Regarding `Nc1nc(-c2cc(-c3ccon3)n(Cc3ccccc3F)n2)ncc1N1CC(C(F)(F)F)OC1=O` (centres unmarked) [Compound 83, 3-(4-amino-2-(1-(2-fluorobenzyl)-5-(isoxazol-3-yl)-1H-pyrazol-3-yl)pyrimidin-5-yl)-5-(trifluoromethyl)oxazolidin-2-one], the EC50 lay within 60 to 100 µM under setting [5] and 0.5 to 1 µM under setting [6].
`Oc1nc(-c2cc(-c3ccco3)n(Cc3ccccc3F)n2)ncc1F` [Compound 90]: the maximal effect (Emax) under setting [4] lay within 40 to 60%. Further, under setting [6], the EC50 was 0.01 to 0.5 µM.
`Nc1nc(-c2cc(-c3ccon3)n(Cc3ccccc3F)n2)ncc1NC(=O)C(Cl)(Cl)Cl` [Compound 98]: under setting [7], the Emax was in the range of 60 to 80%. The “HEK MEC-10” value (Table 3F) is recorded as “B (0.01 to <0.1 μM)”. Moreover, the EC50 runs as follows: under setting [8], less than 20 µM; under setting [9], 0.01 to 0.5 µM.
In the same order, the values of `Nc1nc(-c2cc(-c3ccon3)n(Cc3cccc(F)c3F)n2)ncc1NC(=O)c1ccc(C(F)(F)F)cc1` [Compound 101] are 80 to 100%, “A (0.001 to <0.01 μM)”, less than 20 µM and 0.01 to 0.5 µM.
`CN(C)Cc1ccc(C(=O)Nc2cnc(-c3cc(-c4ccon4)n(Cc4cccc(F)c4F)n3)nc2N)cc1` [Compound 102]: the Emax under setting [7] lay within 60 to 80%. Moreover, the “HEK MEC-10” value (Table 3F) is recorded as “C (0.1 to <1 μM)”. For the same molecule, the EC50 under setting [8] is less than 20 µM and the EC50 under setting [9] fell in the range of 1 to 5 µM.
As to `Nc1nc(-c2cc(-c3ccon3)n(Cc3cccc(F)c3F)n2)ncc1NC(=O)c1ccc[nH]1` [Compound 103], the Emax under setting [7] lay in the range of 80 to 100%. For the setting “Table 3F”, the “HEK MEC-10” value is “A (0.001 to <0.01 μM)”. For the same molecule, the EC50 reads like this: under setting [8], less than 20 µM; under setting [9], 0.01 to 0.5 µM.
In the same order, the values of `CN(C)Cc1cccc(C(=O)Nc2cnc(-c3cc(-c4ccon4)n(Cc4cccc(F)c4F)n3)nc2N)c1` [Compound 104] are 40 to 60%, “C (0.1 to <1 μM)”, less than 20 µM and 1 to 5 µM.
In the same order, the values of `Nc1nc(-c2cc(-c3ccon3)n(Cc3cccc(F)c3F)n2)ncc1NC(=O)c1cc[nH]c1` [Compound 105] are 60 to 80%, “B (0.01 to <0.1 μM)”, less than 20 µM and 0.5 to 1 µM.
For `Nc1nc(-c2cc(-c3ccon3)n(Cc3cccc(F)c3F)n2)ncc1NC(=O)c1ccn[nH]1` [Compound 106], the Emax under setting [7] was 80 to 100%. Besides, the “HEK MEC-10” value (Table 3F) is “D (1 to <10 μM)”. The EC50 is, setting by setting: under setting [8], less than 20 µM; under setting [9], 5 to 10 µM.
The corresponding values for `Nc1nc(-c2cc(-c3ccon3)n(Cc3cccc(F)c3F)n2)ncc1NC(=O)C12CC3CC(CC(O)(C3)C1)C2` [Compound 107] are 40 to 60%, “C (0.1 to <1 μM)”, less than 20 µM and 1 to 5 µM.
In the same order, the values of `Nc1nc(-c2cc(-c3ccon3)n(Cc3ccccc3F)n2)ncc1NC(=O)CCC(F)(F)F` [Compound 111] are 60 to 80%, “B (0.01 to <0.1 μM)”, less than 20 µM and 0.01 to 0.5 µM.
In the same order, the values of `N#Cc1nc(-c2cc(-c3ccon3)n(Cc3ccccc3F)n2)ncc1F` [Compound 115] are 20 to 40%, “D (1 to <10 μM)”, 40 to 60 µM and 1 to 5 µM.
For the molecule `COc1nc(-c2cc(-c3ccon3)n(Cc3ccccc3F)n2)nc(Cl)c1F` [Compound 116], under setting [7], the Emax was 20 to 40%. Moreover, the “HEK MEC-10” value (Table 3F) is recorded as “D (1 to <10 μM)”. For the same molecule, the EC50 under setting [8] was 60 to 100 µM.
